Key:
Varroa jacobsoni = test: Treatment of Varroa jacobsoni-infected bee families in hives, number of perished mites (Example 38); type: in vivo, Varroa jacobsoni mites on Apis mellifera
Protocol: Three families of bees, being present in good condition on nine frames, were infected with `Varroa jacobsoni` to a medium extent, then treated three times, on every third day with the cell-free fermentation broth prepared as described in Example 8 a). Each time, 60 ml of the cell-free fermentation broth prepared as described in Example 8 a) was evenly sprayed by using an airpump spraying device on the honeycomb surfaces and the bees swarming on such surfaces. In addition, each bee family was exposed to the effect of a smoking strip containing 30 mg of amitrase active agent (ANTIVAR for veterinary use) on the third day after the last treatment.
Three other bee families used as control were treated only with ANTIVAR (30 mg of amitrase) in the periods of treatments by the fermentation broth prepared in Example 8 a). Then the number of perished mites and bees inside the hive was counted and registered. Also, the general condition and behavior of the families and the queen-bee were observed.
A tray made of aluminum and provided with a 5 mm high folded rim was placed on the floor-plate of the bee-hives. In case of necessity, the tray could be removed or replaced through an appropriately shaped opening made in the plane of the floor-plate, without the need to open the bee-hive itself.
Under the term of "inhabited strip of the honeycomb" we mean the area stretching between two adjacent sections of the honeycomb was meant where at least 70 to 80% of opposite surfaces of the honeycomb were covered by bees.
By each treatment, 60 ml of cell-free undiluted fermentation broth, prepared as described in Example 8a) and kept at room temperature, were sprayed by using a manually operated air-jet device onto the entire surface of nine frames holding three families of bees (i.e. onto a surface of 27 216 cm^2 per family). The bees covered the honeycomb surface quite evenly during the spraying. The smoking strip containing the amitrase active agent (ANTIVAR) used as control was bent in a "V"-form and placed onto the aluminum tray, then lit and pushed inside the bee-hive. The exit opening was kept closed for one hour.
a) The number of perished mites was registered in the 24th, 48th and 72nd hour after treatments.
Number of perished Varroa jacobsoni mites each per bee family after treatments carried out every 3rd day, 3 times altogether by using the cell-free fermentation broth prepared as described in Example 8a) followed by a treatment with amitrase
Number of perished "Varroa jacobsoni" mites each per bee family after treatment in every third day, 4 times altogether by using 30 mg of amitrase per treatment (control)

Apis mellifera = conditions: bee; comparison value, no test described; cited from earlier work

In the case of `Cc1ccc(N=CN(C)C=Nc2ccc(C)cc2C)c(C)c1` [amitrase], the effect (Varroa jacobsoni; amitrase-treating, as shown in example 38) is reported as < 100%, the “Number of perished mites” value (Varroa jacobsoni; control group, 4th amitrase treatment (30 mg), 24 h after treatment, bee family No. 1) is reported as 57 and the “Number of perished mites” value (Varroa jacobsoni; control group, 4th amitrase treatment (30 mg), 24 h after treatment, bee family No. 2) is reported as 55. For the same molecule, the “Number of perished mites” value (Varroa jacobsoni; control group, 4th amitrase treatment (30 mg), 24 h after treatment, bee family No. 3) was 32, the “Number of perished mites” value (Varroa jacobsoni; control group, 4th amitrase treatment (30 mg), 48 h after treatment, bee family No. 1) was 4 and the “Number of perished mites” value (Varroa jacobsoni; control group, 4th amitrase treatment (30 mg), 48 h after treatment, bee family No. 2) was 0. The “Number of perished mites” value (Varroa jacobsoni; control group, 4th amitrase treatment (30 mg), 48 h after treatment, bee family No. 3) was 4, the “Number of perished mites” value (Varroa jacobsoni; control group, 4th amitrase treatment (30 mg), 72 h after treatment, bee family No. 1) was 1 and the “Number of perished mites” value (Varroa jacobsoni; control group, 4th amitrase treatment (30 mg), 72 h after treatment, bee family No. 2) was 0. For the same molecule, the “Number of perished mites” value (Varroa jacobsoni; control group, 4th amitrase treatment (30 mg), 72 h after treatment, bee family No. 3) was 1, the “Number of perished mites, Total” value (Varroa jacobsoni; control group, 4th amitrase treatment (30 mg), total, bee family No. 1) was 62 and the “Number of perished mites, Total” value (Varroa jacobsoni; control group, 4th amitrase treatment (30 mg), total, bee family No. 2) was 55. The “Number of perished mites, Total” value (Varroa jacobsoni; control group, 4th amitrase treatment (30 mg), total, bee family No. 3) was 37, the “Number of perished mites” value (Varroa jacobsoni; treatment 1, 24 h after treatment, bee family No. 1) was 164 and the “Number of perished mites” value (Varroa jacobsoni; treatment 1, 24 h after treatment, bee family No. 2) was 241. For the same molecule, the “Number of perished mites” value (Varroa jacobsoni; treatment 1, 24 h after treatment, bee family No. 3) was 190, the “Number of perished mites” value (Varroa jacobsoni; treatment 1, 48 h after treatment, bee family No. 1) was 3 and the “Number of perished mites” value (Varroa jacobsoni; treatment 1, 48 h after treatment, bee family No. 2) was 12. For the same molecule, the “Number of perished mites” value (Varroa jacobsoni; treatment 1, 48 h after treatment, bee family No. 3) was 3, the “Number of perished mites” value (Varroa jacobsoni; treatment 1, 72 h after treatment, bee family No. 1) was 0 and the “Number of perished mites” value (Varroa jacobsoni; treatment 1, 72 h after treatment, bee family No. 2) was 1. The “Number of perished mites” value (Varroa jacobsoni; treatment 1, 72 h after treatment, bee family No. 3) was 0, the “Number of perished mites, Total” value (Varroa jacobsoni; treatment 1, total, bee family No. 1) was 167 and the “Number of perished mites, Total” value (Varroa jacobsoni; treatment 1, total, bee family No. 2) was 254. The “Number of perished mites, Total” value (Varroa jacobsoni; treatment 1, total, bee family No. 3) was 193, the “Number of perished mites” value (Varroa jacobsoni; treatment 2, 24 h after treatment, bee family No. 1) was 68 and the “Number of perished mites” value (Varroa jacobsoni; treatment 2, 24 h after treatment, bee family No. 2) was 87. The “Number of perished mites” value (Varroa jacobsoni; treatment 2, 24 h after treatment, bee family No. 3) was 37, the “Number of perished mites” value (Varroa jacobsoni; treatment 2, 48 h after treatment, bee family No. 1) was 0 and the “Number of perished mites” value (Varroa jacobsoni; treatment 2, 48 h after treatment, bee family No. 2) was 3. The “Number of perished mites” value (Varroa jacobsoni; treatment 2, 48 h after treatment, bee family No. 3) was 1, the “Number of perished mites” value (Varroa jacobsoni; treatment 2, 72 h after treatment, bee family No. 1) was 0 and the “Number of perished mites” value (Varroa jacobsoni; treatment 2, 72 h after treatment, bee family No. 2) was 1. For the same molecule, the “Number of perished mites” value (Varroa jacobsoni; treatment 2, 72 h after treatment, bee family No. 3) was 0, the “Number of perished mites, Total” value (Varroa jacobsoni; treatment 2, total, bee family No. 1) was 68 and the “Number of perished mites, Total” value (Varroa jacobsoni; treatment 2, total, bee family No. 2) was 91. For the same molecule, the “Number of perished mites, Total” value (Varroa jacobsoni; treatment 2, total, bee family No. 3) was 38, the “Number of perished mites” value (Varroa jacobsoni; treatment 3, 24 h after treatment, bee family No. 1) was 21 and the “Number of perished mites” value (Varroa jacobsoni; treatment 3, 24 h after treatment, bee family No. 2) was 35. The “Number of perished mites” value (Varroa jacobsoni; treatment 3, 24 h after treatment, bee family No. 3) was 24, the “Number of perished mites” value (Varroa jacobsoni; treatment 3, 48 h after treatment, bee family No. 1) was 0 and the “Number of perished mites” value (Varroa jacobsoni; treatment 3, 48 h after treatment, bee family No. 2) was 2. For the same molecule, the “Number of perished mites” value (Varroa jacobsoni; treatment 3, 48 h after treatment, bee family No. 3) was 1, the “Number of perished mites” value (Varroa jacobsoni; treatment 3, 72 h after treatment, bee family No. 1) was 0 and the “Number of perished mites” value (Varroa jacobsoni; treatment 3, 72 h after treatment, bee family No. 2) was 0. For the same molecule, the “Number of perished mites” value (Varroa jacobsoni; treatment 3, 72 h after treatment, bee family No. 3) was 2, the “Number of perished mites, Total” value (Varroa jacobsoni; treatment 3, total, bee family No. 1) was 21 and the “Number of perished mites, Total” value (Varroa jacobsoni; treatment 3, total, bee family No. 2) was 37. For the same molecule, the “Number of perished mites, Total” value (Varroa jacobsoni; treatment 3, total, bee family No. 3) was 27, the “Number of perished mites” value (Varroa jacobsoni; treatment 4: amitrase (30 mg) after 3 treatments with Example 8a) broth, 24 h, bee family No. 1) was 225 and the “Number of perished mites” value (Varroa jacobsoni; treatment 4: amitrase (30 mg) after 3 treatments with Example 8a) broth, 24 h, bee family No. 2) was 134. For the same molecule, the “Number of perished mites” value (Varroa jacobsoni; treatment 4: amitrase (30 mg) after 3 treatments with Example 8a) broth, 24 h, bee family No. 3) was 94, the “Number of perished mites” value (Varroa jacobsoni; treatment 4: amitrase (30 mg) after 3 treatments with Example 8a) broth, 48 h, bee family No. 1) was 24 and the “Number of perished mites” value (Varroa jacobsoni; treatment 4: amitrase (30 mg) after 3 treatments with Example 8a) broth, 48 h, bee family No. 2) was 4. For the same molecule, the “Number of perished mites” value (Varroa jacobsoni; treatment 4: amitrase (30 mg) after 3 treatments with Example 8a) broth, 48 h, bee family No. 3) was 11, the “Number of perished mites” value (Varroa jacobsoni; treatment 4: amitrase (30 mg) after 3 treatments with Example 8a) broth, 72 h, bee family No. 1) was 0 and the “Number of perished mites” value (Varroa jacobsoni; treatment 4: amitrase (30 mg) after 3 treatments with Example 8a) broth, 72 h, bee family No. 2) was 1. For the same molecule, the “Number of perished mites” value (Varroa jacobsoni; treatment 4: amitrase (30 mg) after 3 treatments with Example 8a) broth, 72 h, bee family No. 3) was 0, the “Number of perished mites, Total” value (Varroa jacobsoni; treatment 4: amitrase (30 mg) after 3 treatments with Example 8a) broth, total, bee family No. 1) was 249 and the “Number of perished mites, Total” value (Varroa jacobsoni; treatment 4: amitrase (30 mg) after 3 treatments with Example 8a) broth, total, bee family No. 2) was 139. For the same molecule, the “Number of perished mites, Total” value (Varroa jacobsoni; treatment 4: amitrase (30 mg) after 3 treatments with Example 8a) broth, total, bee family No. 3) was 105 and the LD50 (Apis mellifera) was 12 microgram/bee.

Reference: patent US5312622A, “Acaricidal compositions and process for preparing same” (Richter Gedeon Vegyeszeti Gyar Rt., priority 1992, dated 1994)
